In paper PMC11335189, “Revealing molecular determinants governing mambalgin-3 pharmacology at acid-sensing ion channel 1 variants” (Cellular and Molecular Life Sciences: CMLS, 2024):
Positions of bridges follow the written chain, without caps; N, C: chain ends. No end group written: not given here.

Target: T1, rASIC1a E362R (Rattus norvegicus, UniProt P55926, E362R)
T1 construct: expressed in transfected cells; host or cells: Xenopus laevis oocytes (cRNA injection)
T1 sequence (P55926 1-526 E362R): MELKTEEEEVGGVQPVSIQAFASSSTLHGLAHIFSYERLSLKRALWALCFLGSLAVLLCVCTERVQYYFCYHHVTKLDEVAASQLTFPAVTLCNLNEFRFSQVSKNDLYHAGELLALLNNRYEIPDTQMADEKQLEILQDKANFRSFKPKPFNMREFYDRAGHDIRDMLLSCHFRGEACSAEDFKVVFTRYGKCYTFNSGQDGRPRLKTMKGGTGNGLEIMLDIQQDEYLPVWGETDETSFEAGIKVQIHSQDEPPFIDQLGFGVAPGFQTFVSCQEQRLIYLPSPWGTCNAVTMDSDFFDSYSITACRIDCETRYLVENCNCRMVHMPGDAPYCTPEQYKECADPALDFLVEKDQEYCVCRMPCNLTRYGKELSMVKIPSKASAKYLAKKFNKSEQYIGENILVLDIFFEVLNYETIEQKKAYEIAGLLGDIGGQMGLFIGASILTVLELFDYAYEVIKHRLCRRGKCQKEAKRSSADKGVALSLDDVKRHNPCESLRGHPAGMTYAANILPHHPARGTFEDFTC
Experiment: TEVC oocytes, rASIC1a E362R mutant
Format: cell-based
Settings: conditioning pH 7.45, stimulating pH 6
Experimental: Two-electrode voltage-clamp (TEVC) experiments using Xenopus laevis oocytes were conducted as previously described. Briefly, oocytes were surgically removed from anaesthetised female frogs, then treated with collagenase (~ 1 mg/ml, Sigma type I) for 2 h under agitation at room temperature. cRNAs were synthesised using a mMessage mMachine T7 or SP6 transcription kit (Thermo Fisher Scientific Australia Pty Ltd, Scoresby, VIC, Australia) and injected into healthy stage V–VI oocytes at 0.2–20 ng per cell. […] Membrane currents were recorded 2–7 days after cRNA-injection under voltage-clamp at -60 mV (Axon Axoclamp 900 A, Molecular Devices, CA, USA) using two standard glass microelectrodes of 0.5–1 MΩ resistance when filled with 3 M KCl solution. […]
Specific to this work, the standard protocol was for oocytes to be conditioned at pH 7.45 and channels stimulated every 60 s using a 5 s pH 5 or 6 application, unless stated otherwise. […] Activation curves were determined by conditioning oocytes at pH 8 (Fig. 2e − g; and Fig. 5a and b) or 7.45 (Fig. 6; and Supplementary Fig. 2d and c) for 55 s and applying low pH stimuli from 7.25 to 5.0 for 5 s. Steady-state desensitisation (SSD) was determined by applying conditioning solutions of pH values from 8 to 6 for 115 s prior to stimulation by a pH drop to 5 for 5 s. […] Control pH-dependence curves were determined in the absence of any Ma-3. […]

H-SLKCYQHGKVVTCHRDMKFCYHNIGMPFRNLKLILQGCSSSCSETENNKCCSTDRCNK (disulfide 4-20, 13-38, 42-50, 51-56 (inferred)) [Ma-3, mambalgin-3]
decrease in Ma-3 activity relative to wild-type rASIC1a: ~ 5 fold
